Results reported in patent publication US20150141523A1, “COMPOUNDS FOR USE IN THE TREATMENT OF AUTOIMMUNE INFLAMMATORY DISEASE” (Venantius Limited, priority 2012, published 2015).

Key:
[1] = tested on: IL-2 secretion from Jurkat T cells; assay: IL-2 secretion from activated Jurkat T cells (ELISA); format: cell-based, human; conditions: for IL-2 [ ]pg/ml (1) / IL-2 % Control (1): experiment (1); for IL-2 % Control (1) / IL-2 % Control (2) / IL-2 % Control (3): relative to DMSO 0.1%; for IL-2 [ ]pg/ml (2) / IL-2 % Control (2): experiment (2); for IL-2 [ ]pg/ml (3) / IL-2 % Control (3): experiment (3)
Description: The T cell line Jurkat 6.1 (ATCC) was used. Cells were pre-treated for 30 min with 1 μM or 10 μM of the respective compound and then stimulated with plate-bound anti-CD3 (BD Pharmingen) and anti-CD28 (AnCell). DMSO was used as vehicle control. The immunosuppressive agent Cyclosporine A was used as a control for inhibition of IL-2 production. After 24 hs the supernatant was collected and IL-2 secretion was measured by ELISA.
Jurkat T cells were cultured in RMPI-1640 medium containing 10 % Foetal Bovine Serum, Penicillin/Streptomycin and L-Glutamine in T-75cm2 flasks at 37° C. and 5 % CO2. Cells were seeded into new culture flasks at a density of 1-3×10^5 cells per ml and maintained at a density of 0.5−1×10^6 cells per ml.
(A) Anti-TCR/CD28-mediated activation of Jurkat cells: Experiments involving anti-TCR/CD28-mediated activation of Jurkat T lymphocytes were carried out on 24-well cell culture plates. The plates were coated with a 1/100 dilution of rabbit anti-mouse IgG in sterile PBS (1×) and incubated overnight at 4OC. Unbound antibody was aspirated and the wells were gently rinsed with warm sterile PBS. The PBS was aspirated and the wells were coated with a 1/100 dilution of anti-TCR antibody (OKT-3) and a 1/200 dilution of anti-CD28 antibody (both antibodies pre-mixed prior to addition to the plates) in sterile PBS. The plates were then incubated for 1-2 hours at 37° C. Unbound antibody was aspirated and the wells were gently rinsed with warm PBS. The PBS was left on the plate until the Jurkat cells were ready to be added to the plate. The Jurkat cells were harvested from the T-75cm2 cell culture flasks and resuspended at a density of 0.5×10^6 cells per ml. The compounds were dissolved at a specified stock concentration (see results section) and diluted to the required concentration by adding the drug to the cell suspension. The cells were then pre-incubated with the compounds or with an equivalent volume of drug vehicle control (DMSO) for 30 minutes prior to adding the cell suspension to the antibody-coated plates. Cyclosporine A (1 μM) was used as a positive control to inhibit IL-2 production from activated T cells and was preincubated with the 6 cells as described above in parallel. The cells were then incubated on the plates with the acti-TCR/CD28 antibodies for 24 hours at 37° C. and 5% CO2 in a humidified atmosphere. After 24 hours, the cell suspension was removed from the plates and the cells were pelleted by centrifugation. The cell culture supernatant was saved and analysed for secreted IL-2 by ELISA. The cell pellet was saved and cell viability was measured using Acridine Orange/Ethidium Bromide cell viability staining solution.
(B) PHA/PMA-mediated activation of Jurkat cells Jurkat cells were resuspended at a concentration of 0.5×10^6 cells per ml and the Pharmatrin compounds at the desired concentration or an equivalent volume of drug vehicle control (DMSO) were added to the cells and incubated for 30 minutes. Cyclosporine A (1 ∝M) was used as a positive control to inhibit IL-2 production from activated T cells and was preincubated with the cells as described above in parallel. PHA and PMA were added to the cell suspension (10 ∝g/ml and 10 ng/ml respectively) and the cells were plated onto uncoated 24-well plates. The cells were incubated on the plates for 24 hours at 37° C. and 5 % CO2 in a humidified atmosphere. After 24 hours, the cell suspension was removed from the plates and the cells were pelleted by centrifugation. The cell culture supernatant was saved and analysed for secreted IL-2 by ELISA.
The cell culture supernatants were analysed for IL-2 by ELISA (96-well plate format) using the Human IL-2 ELISA kit from R&D Systems Europe. This assay was carried out using the standard protocol outlined by the company. Samples and standards (recombinant human IL-2 provided by R&D Systems) were analysed in triplicate. […]

[2] = tested on: Balb/C mice; assay: 5% DSS-induced murine colitis model; format: in vivo, mouse

O[C@H]1c2ccccc2C[C@]1(Cc1ccccc1)C1=Cc2ccccc2C1 (single isomer, unassigned) [Compound 9]
IL-2 [ ]pg/ml (1) ([1]; 0.3 uM): 111.72 pg/mL | IL-2 % Control (1) ([1]; 0.3 uM): 152.99% | IL-2 [ ]pg/ml (2) ([1]; 0.3 uM): 73.45 pg/mL | IL-2 % Control (2) ([1]; 0.3 uM): 112.48% | IL-2 [ ]pg/ml (3) ([1]; 0.3 uM): 139.63 pg/mL | IL-2 % Control (3) ([1]; 0.3 uM): 106.13% | IL-2 [ ]pg/ml (1) ([1]; 1 uM): 120.56 pg/mL | IL-2 % Control (1) ([1]; 1 uM): 165.09% | IL-2 [ ]pg/ml (2) ([1]; 1 uM): 65.45 pg/mL | IL-2 % Control (2) ([1]; 1 uM): 100.23% | IL-2 [ ]pg/ml (3) ([1]; 1 uM): 114.13 pg/mL | IL-2 % Control (3) ([1]; 1 uM): 86.75% | IL-2 [ ]pg/ml (1) ([1]; 3 uM): 78.78 pg/mL | IL-2 % Control (1) ([1]; 3 uM): 107.88% | IL-2 [ ]pg/ml (2) ([1]; 3 uM): 81.75 pg/mL | IL-2 % Control (2) ([1]; 3 uM): 59.11% | IL-2 [ ]pg/ml (3) ([1]; 3 uM): 53.47 pg/mL | IL-2 % Control (3) ([1]; 3 uM): 40.64% | IL-2 [ ]pg/ml (1) ([1]; 10 uM): 37.72 pg/mL | IL-2 % Control (1) ([1]; 10 uM): 51.66% | IL-2 [ ]pg/ml (2) ([1]; 10 uM): 85.60 pg/mL | IL-2 % Control (2) ([1]; 10 uM): 131.09% | IL-2 [ ]pg/ml (3) ([1]; 10 uM): 36.16 pg/mL | IL-2 % Control (3) ([1]; 10 uM): 27.48% | IL-2 [ ]pg/ml (1) ([1]; 30 uM): -4.56 pg/mL | IL-2 % Control (1) ([1]; 30 uM): −6.24% | IL-2 [ ]pg/ml (2) ([1]; 30 uM): 16.35 pg/mL | IL-2 % Control (2) ([1]; 30 uM): 25.04% | IL-2 [ ]pg/ml (3) ([1]; 30 uM): -3.88 pg/mL | IL-2 % Control (3) ([1]; 30 uM): −2.95% | IL-2 [ ]pg/ml (1) ([1]; 100 uM): -3.72 pg/mL | IL-2 % Control (1) ([1]; 100 uM): −5.10% | IL-2 [ ]pg/ml (2) ([1]; 100 uM): -5.75 pg/mL | IL-2 % Control (2) ([1]; 100 uM): −8.81% | IL-2 [ ]pg/ml (3) ([1]; 100 uM): -5.28 pg/mL | IL-2 % Control (3) ([1]; 100 uM): −4.01% | inhibition of DAI in DSS-induced colitis ([2]; 5% DSS colitis (FIG. 9)): only the S,S-enantiomer 10 caused a significant | effect on DSS-induced weight loss ([2]; 5% DSS colitis, 30 mg/kg p.o. (FIG. 8)): not
